Common to all, as to assay: NCI tumour cell line growth inhibition, 48 h
Assay [1] relates to DU-145 prostate.
Assay [2] concerns SF-268 CNS.
The test system of assay [3] is OVCAR-3 ovarian.
Assay [4] deals with OVCAR-5 ovarian.
For assay [5], the system named is MALME-3M melanoma.
Assay [6] has as its system COLO 205 colon.
Assay [7] has as its system 786-0 renal.
Assay [8] deals with OVCAR-4 ovarian.
Assay [9] has as its system RXF 393 renal.
For assay [10], the system named is SK-MEL-5 melanoma.

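Cultured in 96-well plates, cells were exposed to test compound for 48 hours across five concentrations. TGI: concentration producing complete growth inhibition.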 Some results are limits rather than exact numbers.

`CC1(C)C2CC(O)C1(C)CC2=O` (stereo not given): the TGI in assay [1], in [2], in assay [3], in assay [4], in [5] and in assay [6] was more than 100 µM in each case. Also, the TGI in assay [7], in assay [8], in assay [9] and in [10] was more than 100 µM throughout.

On to `O=C1c2c(Br)sc(Br)c2C(NC(=O)C(F)(F)F)C1O` (stereo not given), for which the TGI in assay [1] was 39.4 µM; in [2] it was more than 100 µM; in assay [3], 43.7 µM; in assay [4] it was 39.6 µM; in assay [5], 43.7 µM; in [6], 33.4 µM. The TGI worked out at 36.7 µM in assay [7], 34.8 µM in assay [8], 27.5 µM in assay [9] and 36 µM in assay [10].

With `CCCCCCCCCCCCCCCCP(=O)(O)OCC(N)C(=O)O` (stereo not given), the TGI in [1] is more than 100 µM; in [2], 74 µM; in assay [3], 79.3 µM; in assay [4] it was 65.1 µM; in assay [5], more than 100 µM; in [6], more than 100 µM. Moreover, the TGI in assay [7] is more than 100 µM; in [8], more than 100 µM; in [9] it was 75.1 µM; in assay [10], more than 100 µM.

Regarding `O=c1[nH]c(=O)n(C/C=C/CO)nc1Br`, the TGI in [1], in assay [2], in assay [3], in assay [4], in assay [5] and in [6] was more than 100 µM each time. Moreover, the TGI in assay [7], in [8], in assay [9] and in assay [10] was more than 100 µM in each case.

As to `CCCN(CCc1ccc(-c2ccccc2)cc1)CCc1ccc2n[nH]nc2c1`, the TGI in [1] worked out at 23.9 µM; in assay [2] it was 48.7 µM; in [3] it was 25.8 µM; in assay [4], 33.6 µM; in assay [5], 22.8 µM; in assay [6] it was 9.07 µM. Also, the TGI came out at 24.9 µM in assay [7], 33.3 µM in [8], 33.1 µM in assay [9] and 15.8 µM in [10].

As to `Cn1c(-c2cccs2)cc(-c2cccs2)c1-c1cccs1`, the TGI in assay [1] is more than 100 µM; in [2] it was more than 100 µM; in assay [3], more than 100 µM; in assay [4], more than 100 µM; in assay [5], more than 100 µM; in [6], 34.1 µM. Moreover, the TGI in assay [7], in assay [8], in [9] and in assay [10] was more than 100 µM throughout.

Consider `CC1=NN(c2cccc(S(=O)(=O)O)c2)C2(C1)C(Cl)C(=O)N2c1nc2ccccc2s1` (stereo not given), for which the TGI in [1] came out at 25.2 µM; in [2], 22.9 µM; in assay [3] it was 9.26 µM; in assay [4], 28.1 µM; in assay [5], 17.3 µM; in assay [6], 24.8 µM. For the same compound, the TGI in [7] amounted to 11.7 µM; in [8], 14.9 µM; in assay [9] it was 22.8 µM; in assay [10], 18.8 µM.

For the compound `COc1cc2c(cc1C)NC(=O)/C2=C/c1cccnc1`, the TGI in assay [1] is 27.3 µM; in assay [2], 41 µM; in assay [3], 33.3 µM; in assay [4] it was 27.9 µM; in [5] it was more than 52.9 µM; in assay [6] it was more than 47.9 µM. Further, the TGI is more than 52.5 µM in assay [7], 56.4 µM in assay [8], 25 µM in [9] and 25.3 µM in [10].

Regarding `CCCCCCCC(CC(=O)NC(CO)C(=O)NC(CO)CC(C)C)OC(=O)CC(CCCCCCC)OC(=O)CC(CCCCCCC)OC1OC(C)C(O)C(OC2OC(C)C(O)C(OC(C)=O)C2O)C1O` (stereo not given), the TGI was found to be 23.4 µM in [1]; 25.9 µM in assay [2]; 23 µM in assay [3]; 24 µM in [4]; 33.4 µM in assay [5]; 18.9 µM in [6]. Also, the TGI in assay [7] was determined as 26.4 µM; in [8], 27.8 µM; in assay [9] it was 20.9 µM; in [10] it was 25.1 µM.

Consider `CC12Nc3c(Cl)cc(Cl)cc3N1C(=O)c1ccccc12` (stereo not given), for which the TGI in assay [1], in assay [2], in assay [3], in assay [4], in assay [5] and in assay [6] was more than 100 µM in each case. Further, the TGI in assay [7], in assay [8], in assay [9] and in assay [10] was more than 100 µM in each case.

As for `CC[C@]12C=CCN3CC[C@@]4(c5cc(Br)c(OC)c([N+](=O)[O-])c5N(C)[C@H]4[C@@](O)(C(=O)OC)[C@@H]1OC(C)=O)[C@@H]32`, the TGI in [1], in assay [2], in [3], in assay [4], in [5] and in [6] was more than 100 µM in each case. The TGI in assay [7], in assay [8], in assay [9] and in [10] was more than 100 µM throughout.

In the case of `CC(=O)OC1=NN=C2COC(c3ccccc3OC(C)=O)=NN2C1`, the TGI in [1], in assay [2], in [3], in assay [4], in [5] and in assay [6] was more than 50 µM throughout. The TGI in assay [7] was more than 50 µM; in assay [8], more than 50 µM; in assay [9] it was more than 50 µM; in assay [10], 18.1 µM.

Regarding `O=C1c2ccccc2-c2nnc(-c3ccc([N+](=O)[O-])cc3)cc21`, the TGI in [1], in [2], in assay [3], in [4], in assay [5] and in [6] was more than 10 µM each time. Further, the TGI in assay [7], in assay [8], in [9] and in assay [10] was more than 10 µM throughout.

In the case of `COc1ccc(CNc2ccn(C3OC(CO)C(O)C3O)c(=O)n2)cc1` (stereo not given), the TGI in [1], in assay [2], in [3], in assay [4], in [5] and in assay [6] was more than 100 µM in each case. The TGI in assay [7], in [8], in assay [9] and in assay [10] was more than 100 µM in each case.

As to `CN1CCCC2C(c3ccccc3)C(C3=NCCCC3)C(c3ccccc3)CC21` (stereo not given), the TGI in assay [1] was more than 100 µM; in [2], more than 100 µM; in assay [3], more than 100 µM; in assay [4], more than 100 µM; in assay [5], 37.6 µM; in assay [6], 66.1 µM. Further, the TGI was more than 100 µM in [7], more than 100 µM in [8], more than 100 µM in assay [9] and 31.7 µM in assay [10].

As to `C[C@]12CC[C@H]3[C@@H](CCC4=CC(=O)CC[C@@H]43)[C@@H]1CC[C@]2(O)C(N)=O`, the TGI in assay [1], in [2], in [3], in [4], in [5] and in assay [6] was more than 100 µM throughout. The TGI in assay [7], in assay [8], in [9] and in assay [10] was more than 100 µM throughout.

As for `COC(=O)C1C2OC(C)(C)OC2CN1S(=O)(=O)c1ccc(C)cc1` (stereo not given), the TGI in [1], in [2], in [3], in [4], in assay [5] and in assay [6] was more than 100 µM each time. Moreover, the TGI in assay [7], in assay [8], in [9] and in assay [10] was more than 100 µM throughout.

Regarding `COC(=O)C1=CC2C(=O)c3ccccc3C1(c1ccccc1)N2C1CCCCC1` (stereo not given), the TGI is more than 100 µM in assay [1]; more than 100 µM in [2]; 95 µM in [3]; more than 100 µM in assay [4]; 73.1 µM in assay [5]; 26.2 µM in [6]. The TGI in assay [7] is more than 100 µM; in assay [8], 91.6 µM; in assay [9], 24.6 µM; in [10] it was 22 µM.

In the case of `Cc1c2c(cc3c1C(=O)C(=O)C([C@@H](C)CO)=C3O)C(C)(C)CCC2`, the TGI was more than 100 µM in [1]; more than 100 µM in assay [2]; more than 100 µM in [3]; more than 100 µM in [4]; 57.1 µM in assay [5]; more than 100 µM in [6]. In addition, the TGI was more than 100 µM in assay [7], more than 100 µM in assay [8], 92.3 µM in assay [9] and 86.9 µM in [10].

Take `O=C(Nc1ccc(Cl)cc1)c1cc(S(=O)(=O)Nc2n[nH]c(Nc3ccc4ccccc4c3)n2)c(SSc2cc(Cl)c(C(=O)Nc3ccc(Cl)cc3)cc2S(=O)(=O)Nc2n[nH]c(Nc3ccc4ccccc4c3)n2)cc1Cl`: the TGI is more than 74.4 µM in [1]; more than 100 µM in assay [2]; 59.5 µM in assay [3]; 50.5 µM in assay [4]; 43 µM in [5]; 38.8 µM in assay [6]. In addition, the TGI in assay [7] is more than 94.3 µM; in assay [8] it was 97.5 µM; in assay [9], 79.9 µM; in assay [10] it was 40.6 µM.

As for `CCOC(=O)CC[C@H](N)C(=O)N[C@@H](Cc1ccc(N(CCCl)CCCl)cc1)C(=O)OCC`, the TGI in assay [1] is 5.56 µM; in assay [2], 7.07 µM; in [3], 1.82 µM; in assay [4], 6.78 µM; in [5], 0.823 µM; in [6], 2.3 µM. For the same compound, the TGI in assay [7] was 2.51 µM; in [8] it was 1.41 µM; in assay [9] it was 2.14 µM; in [10] it was 3.13 µM.

For `CC(=O)C(C(=O)c1ccc(C)cc1)[C@@H]1OC(C)(C)O[C@@H]1[C@H]1COC(C)(C)O1` (stereo not given in full), the TGI in assay [1] was 29.8 µM; in [2], more than 83.4 µM; in [3] it was 24.4 µM; in assay [4], more than 100 µM; in [5], 34 µM; in assay [6], 39.6 µM. The TGI in assay [7] is 21.5 µM; in [8], more than 26.3 µM; in assay [9], 36.4 µM; in [10] it was 29.2 µM.

With `CC(NC(=O)OCc1ccccc1)NC(=O)OC(C)(C)C` (stereo not given), the TGI in assay [1], in [2], in assay [3], in assay [4], in assay [5] and in [6] was more than 100 µM in each case. For the same compound, the TGI was more than 100 µM in assay [7], more than 100 µM in assay [8], 84.3 µM in [9] and more than 100 µM in assay [10].

Regarding `CC(=O)NC1C(OCc2ccccc2)OC(CO)C(O)C1OC(C)C(=O)NC(C(=O)NC(CCC(=O)NCCCC(=O)Nc1ccc2c(c1)CN1C(=O)c3ccccc3C1=N2)C(N)=O)C(C)C` (stereo not given), the TGI in assay [1], in assay [2], in [3], in assay [4], in assay [5] and in assay [6] was more than 100 µM throughout. Moreover, the TGI in [7], in assay [8], in [9] and in assay [10] was more than 100 µM in each case.

With `COc1cc(C(=O)NNC(=O)c2cc(Br)ccc2NC(=O)c2cccs2)cc(OC)c1OC`, the TGI in assay [1] is more than 100 µM; in assay [2], 29.3 µM; in assay [3], more than 100 µM; in [4], 45.3 µM; in assay [5], 86.1 µM; in [6], 25.5 µM. The TGI in [7] worked out at 45.4 µM; in assay [8], 51.4 µM; in [9], 29.1 µM; in assay [10], 26.7 µM.

As for `C=CCN1C(=O)/C(=C/c2ccc(Cl)cc2)N=C1SC/C=C/C`, the TGI in [1], in [2], in assay [3], in assay [4], in assay [5] and in assay [6] was more than 100 µM in each case. The TGI was more than 100 µM in assay [7], more than 100 µM in assay [8], 55.3 µM in assay [9] and 82 µM in assay [10].

The record behind these values is PubChem BioAssay (NCI).
